# Measured values taken from US8252768B2, “Designer therapy of pancreatic tumors” (University of Miami, priority 2006, dated 2012).
# Like-named read-outs stand apart in the source and are kept apart here. Marks after values point to notes of the source that are not given here.
# How the values were obtained:
# cytidine deaminase (CD) = molecular target: T1, cytidine deaminase (CD) (Homo sapiens, UniProt P32320); test: Competition assay for substrates of cytidine deaminase, crude extracts of PC-3 cells; format: biochemical; conditions: for substrate for cytidine deaminase (in words): competition studies, human tumor cell extracts; for % Inhibition (CD) / inhibition at 250 µM: competitor 250 μM; for % Inhibition (CD) / inhibition at 250 µM / inhibition: ratio 10, PC-3 extracts
# T1 construct: Crude extracts of PC-3 cells in culture were prepared as described above; endogenous in cells; host or cells: PC-3 cells (crude extract supernatant)
# T1 sequence (P32320 whole entry): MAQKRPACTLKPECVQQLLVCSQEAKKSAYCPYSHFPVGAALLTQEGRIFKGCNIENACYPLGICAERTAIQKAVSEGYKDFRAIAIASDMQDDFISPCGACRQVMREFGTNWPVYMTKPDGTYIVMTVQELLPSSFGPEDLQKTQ
# Procedure: The crude enzyme extract (the supernatant of a 10 minute 14,000×g centrifugation) was then added. When cytidine was used as substrate, assays were conducted with benzacyclouridine to inhibit uridine phosphorylases. […] After 0, 15, and 30 minutes, the reaction was stopped and denatured protein removed as above for dC Kinase. […] Aliquots were then spotted on PE cellulose TLC sheets and the reactants separated with a solvent system composed of isopropanol:HCl:H2O (170:41:39). […] The nucleosides were visualized under U.V. light and the spots cut out and counted. […] Enzyme activity was expressed as nmole formed in 30 min/mg/protein.
# Competition assays to determine Substrate Specificity: Crude extracts of PC-3 cells in culture were prepared as described above. Two concentrations of crude extract were utilized for the studies as determined from the analysis of protein.
# The assays were run for 0, 15, and 30 minutes.
# PC-3 cells [1] = test: Radiosensitization of cells in culture (Cobalt 60, clonogenic survival); format: cell-based, human
# Procedure: (§1) Toxicity and Radiation Studies: The methods using clonogenic assays described by Perez and Greer (Int. J. Rad. Oncology: Biology, Physics 12, 1523-1527, 1986—incorporated herein by reference in its entirety) were followed.
# Irradiation of Cells in Culture: 2×10^5 cells were plated in 25 cm^2 flasks and grown for 18 hr at 37° C. in a humidified 5% CO2 atmosphere. The medium was then removed and replaced with medium containing the appropriate drug concentrations and incubated for 72 hrs then removed and the cell monolayers were rinsed twice with PBS. The flasks were then filled with 50 ml of radiation medium (3 parts RPMI 1640 and 7 parts PBS plus antibiotics and glutamine). The cells were then irradiated using a Cobalt 60 irradiator. The cell monolayers were placed 35 cm away from the source and irradiated for appropriate times according to the dose rate. The dose rate was calculated, at this distance, using ionization chambers. Attenuation factors due to the polystyrene flask (0.9923) and the medium (H2O=0.8715) were considered in calculating the exposure period.
# After irradiation the cell monolayers were washed again, replenished with growth media, and incubated for 1½ hours. The cell monolayers were then trypsinized and the cells serially diluted, appropriate dilutions were then plated in 60 mm dishes and incubated for 7-9 days at 37° C. and CO2. At the end of this period the cells were stained with crystal violet and the colony forming ability determined by considering 25 or more normal cells as a viable colony. The viabilities were determined and the appropriate survival curves derived. All conditions were done in duplicate using two flasks treated under identical conditions.
# PC-3 cells [2] = test: Cytotoxicity (clonogenic) assay, 72 h drug exposure; format: cell-based, human
# Procedure: as §1
# Cytotoxicity Assays: 5×10^5 cells were plated in 60 mm tissue culture dishes in 5 mls of the optimal growth media for the particular cell line in an humidified 95% air-5% CO2 atmosphere. The plates were incubated for 18-20 hours to allow for attachment and log-phase growth to begin. At the end of this period the growth medium was aspirated and replaced with […]. Four times (4×) concentrated solutions were prepared and then 1 ml was added to the plates; and growth media were then added to a total volume of […]. The plates were then incubated for 72 hours and the cells harvested by trypsinization. The cells were then serially diluted in growth medium replated into 60 mm dishes and incubated for 6 to 9 days depending on the cell line. After this incubation period, the media was aspirated and the colonies were washed twice with a PBS solution. The colonies were then stained with a 0.2% crystal violet-20% ethanol solution for 5 min. the stain was removed, the colonies were washed and air dried. A viable colony was one consisting of 25 or more normal appearing cells and was considered to have arisen from a single cell. The colonies were counted under a dissecting microscope. Two to three dilutions for every condition were plated. Dishes containing 30-300 colonies were used in the calculation and all conditions were done in duplicate.
# uridine/cytidine kinase = test: Competition assay for substrates of uridine/cytidine kinase, crude extracts of T24 cells; format: biochemical, human
# Procedure: 2 mM dithiothreitol (DTT) and 0.5 mM phenylmethylsulfanyl fluoride were added just before extraction. The tissue sample was homogenized in a Dounce glass homogenizer and then sonicated for 3 five-second pulses in a Branson Sonifier with a micro-tip at 25 KHz to disrupt the cells. During homogenization and sonication the extract was kept cold throughout the procedures. The tissue extract was then centrifuged at 14,000×g at 4° C. for 15 min., and the supernatant (the crude enzyme extract) was removed. The supernatant was sheared 20 times on ice utilizing a 1 cc syringe with a 27 G½ needle to reduce viscosity. […] 2 mM DTT and 340 μM H4U were added just before the assay. Finally, to the reaction mixture, 5 μl 200 mM creatine phosphate and creatine phosphokinase (0.5 unit/μl) was added to 150 μl of the section mixture. […] H2O bath for 1 minute before 20 μl of the crude enzyme extract was added to initiate the reaction. […] At 0, 30 and 60 minutes the reaction mixture, divided in separate tubes, was heated in a boiling water bath for 2 minutes to terminate the reaction. Denatured protein was then removed by centrifugation of the sample for 2 minutes at 14,000×g. The amount of nucleotide formed was determined by spotting 20 μl aliquots of the reaction mixture onto DE-81 2.2 cm Whatman filter discs. After air drying, the unphosphorylated substrate nucleoside was removed by washing twice for 10 min. in 20 mM ammonium formate and twice for 5 min. in deionized H2O with gentle stirring. A control, lacking the crude enzyme extract was included with each determination. The washed papers were dried under a heat lamp and then placed into individual scintillation vials, eluted for 30 min. in 1 ml of 0.1M HCl-0.1M KCL and then vortexed in 5 ml of scintillation fluid and counted. Enzyme activity was expressed as pmoles/min/mg protein.
# When uridine was utilized as substrate, benzacyclouridine was added to prevent the catabolism of the substrate by uridine phosphorylase and tetrahydrouridine was omitted.
# [3] = molecular target: deoxycytidine kinase (dCK) (Homo sapiens, UniProt P27707); test: Competition assay for substrates of deoxycytidine kinase, crude extracts of PC-3 cells; conditions: read-out: % Inhibition (dCK)
# Sequence of deoxycytidine kinase (dCK) (P27707 whole entry): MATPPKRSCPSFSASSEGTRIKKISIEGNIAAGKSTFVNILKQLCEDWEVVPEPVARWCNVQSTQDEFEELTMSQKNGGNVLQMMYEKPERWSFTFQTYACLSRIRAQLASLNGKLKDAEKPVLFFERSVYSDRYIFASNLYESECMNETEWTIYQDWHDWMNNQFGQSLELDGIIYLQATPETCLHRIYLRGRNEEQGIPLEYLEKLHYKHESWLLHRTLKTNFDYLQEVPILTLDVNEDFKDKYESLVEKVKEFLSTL
# [4] = substrate 3H-Deoxycytidine 25 μM
# [5] = competitor 100 μM, substrate 3H-Cytidine 8.3 μM
# [6] = competitor 100 μM, substrate 3H-Uridine 16.7 μM
# [7] = competitor 250 μM, substrate 3H-Cytidine 8.3 μM
# [8] = competitor 250 μM, substrate 3H-Uridine 16.7 μM
# [9] = competitor 500 μM, substrate 3H-Cytidine 8.3 μM
# [10] = competitor 500 μM, substrate 3H-Uridine 16.7 μM
# [11] = competitor 750 μM, substrate 3H-Uridine 16.7 μM
compound,measurement,setting,value
"CNc1nc(=O)n([C@H]2C[C@H](O)[C@@H](CO)O2)cc1Cl [4-N,methylamino CldC, 4-N, methylamino-5-Chloro-2′-deoxycytidine]",substrate for cytidine deaminase (in words),cytidine deaminase (CD),reasonably good substrate
same,% Inhibition (CD),cytidine deaminase (CD); substrate 3H-Cytidine 25 μM,13%
same,% Inhibition (CD),cytidine deaminase (CD); [4],29%
same,radiosensitization of PC-3 cells (in words),PC-3 cells [1],potent radiosensitizing effect
same,effect of tetrahydrouridine (H4U) on radiosensitization (in words),PC-3 cells [1]; cells in culture,antagonism by tetrahydrouridine
same,effect of thymidine on radiosensitization (in words),PC-3 cells [1]; cells in culture,antagonized by thymidine
"CNc1nc(=O)n([C@H]2C[C@H](O)[C@@H](CO)O2)cc1F [4-N,methylamino FdC, 4-N, methylamino-5-Fluoro-2′-deoxycytidine]",substrate for cytidine deaminase (in words),"cytidine deaminase (CD); listed as 4-N, methylamino FdC",poor substrate
same,substrate for cytidine deaminase (in words),"cytidine deaminase (CD); listed as 4-N, methylamino-5-Fluoro-2′-deoxycytidine",moderate to poor substrate
same,% Inhibition (CD),cytidine deaminase (CD); substrate 3H-Cytidine 25 μM,0%
same,% Inhibition (CD),cytidine deaminase (CD); [4],4.0%
same,effect of thymidine on cytotoxicity (in words),PC-3 cells [2]; PC-3 cells,antagonized by thymidine
same,effect of tetrahydrouridine (H4U) on cytotoxicity / viability (in words),"PC-3 cells [2]; PC-3 cells, listed as 4-N, methylamino FdC",antagonized by tetrahydrouridine
same,effect of tetrahydrouridine (H4U) on cytotoxicity / viability (in words),"PC-3 cells [2]; PC-3 cells, listed as 4N, methylFdC",prevented by tetrahydrouridine
O=c1[nH]c(=O)n(COCCO)cc1Cc1ccccc1 [5-Benzacyclouridine],% Inhibitation (U/C kinase),"uridine/cytidine kinase; competitor 1500 μM, substrate 3H-Cytidine 8.3 μM",0%
same,% Inhibitation (U/C kinase),"uridine/cytidine kinase; competitor 1500 μM, substrate 3H-Uridine 16.7 μM",7.0%
Nc1nc(=O)n([C@@H]2O[C@H](CO)[C@@H](O)[C@H]2O)cc1Cl [5-Chlorocytidine],substrate for U/C kinase of T24 cells (in words),uridine/cytidine kinase,moderate substrates
same,% Inhibitation (U/C kinase),uridine/cytidine kinase; [5],10%
same,% Inhibitation (U/C kinase),uridine/cytidine kinase; [6],2%
same,% Inhibitation (U/C kinase),uridine/cytidine kinase; [7],24%
same,% Inhibitation (U/C kinase),uridine/cytidine kinase; [8],23%
same,effect of tetrahydrouridine (H4U) on cytotoxicity / viability (in words),"PC-3 cells [2]; human, 72 h",H4U decreases viability
same,radiosensitization of PC-3 cells (in words),PC-3 cells [1],radiosensitization
same,effect of tetrahydrouridine (H4U) on radiosensitization (in words),PC-3 cells [1]; cells in culture,decreases radiosensitization
"Nc1nc(=O)n([C@H]2C[C@H](O)[C@@H](CO)O2)cc1Cl [5-Chlorodeoxycytidine, 5-chloro-2′-deoxycytidine, reference compound]",inhibition at 250 µM,cytidine deaminase (CD); [4],42%
same,inhibition,cytidine deaminase (CD); substrate 3H-Cytidine 25 μM,80%
same,% Inhibitation (U/C kinase),uridine/cytidine kinase; [8],0%
same,% Inhibitation (U/C kinase),uridine/cytidine kinase; [9],5.1%
same,inhibition at 250 µM,[3],72%
O=c1[nH]c(=O)n([C@H]2C[C@H](O)[C@@H](CO)O2)cc1Cl [5-Chlorodeoxyuridine],% Inhibitation (U/C kinase),"uridine/cytidine kinase; competitor 200 μM, substrate 3H-Cytidine 8.3 μM",7.0%
same,% Inhibitation (U/C kinase),uridine/cytidine kinase; [8],0%
Nc1nc(=O)n([C@@H]2O[C@H](CO)[C@@H](O)[C@H]2O)cc1F [5-Fluorocytidine],% Inhibitation (U/C kinase),uridine/cytidine kinase; [6],34%
same,% Inhibitation (U/C kinase),uridine/cytidine kinase; [7],51%
same,% Inhibitation (U/C kinase),uridine/cytidine kinase; [8],58%
same,% Inhibitation (U/C kinase),uridine/cytidine kinase; [9],66%
"Nc1nc(=O)n([C@H]2C[C@H](O)[C@@H](CO)O2)cc1F [5-Fluorodeoxycytidine, reference compound]",inhibition at 250 µM,cytidine deaminase (CD); [4],50%
same,inhibition,cytidine deaminase (CD); substrate 3H-Cytidine 25 μM,83%
same,% Inhibitation (U/C kinase),uridine/cytidine kinase; [9],4.8%
same,inhibition at 250 µM,[3],90%
O=c1[nH]c(=O)n([C@@H]2O[C@H](CO)[C@@H](O)[C@H]2O)cc1F [5-Fluorouridine],% Inhibitation (U/C kinase),uridine/cytidine kinase; [6],56%
same,% Inhibitation (U/C kinase),uridine/cytidine kinase; [8],80%
"Cc1cn([C@H]2C[C@H](O)[C@@H](CO)O2)c(=O)nc1N [5-methyldC, reference compound]",% Inhibition (CD),cytidine deaminase (CD); substrate 3H-Cytidine 25 μM,30%
Nc1ccn([C@@H]2O[C@H](CO)[C@@H](O)[C@H]2O)c(=O)n1 [Cytidine],% Inhibitation (U/C kinase),uridine/cytidine kinase; [5],66%
same,% Inhibitation (U/C kinase),uridine/cytidine kinase; [6],57%
same,% Inhibitation (U/C kinase),uridine/cytidine kinase; [7],85%
same,% Inhibitation (U/C kinase),uridine/cytidine kinase; [8],89%
same,% Inhibitation (U/C kinase),uridine/cytidine kinase; [9],88%
same,% Inhibitation (U/C kinase),uridine/cytidine kinase; [10],90%
same,% Inhibitation (U/C kinase),uridine/cytidine kinase; [11],96%
Nc1ccn([C@H]2C[C@H](O)[C@@H](CO)O2)c(=O)n1 [Deoxycytidine],inhibition at 250 µM,cytidine deaminase (CD); [4],66%
same,% Inhibitation (U/C kinase),uridine/cytidine kinase; [7],10%
same,% Inhibitation (U/C kinase),uridine/cytidine kinase; [8],0%
same,% Inhibitation (U/C kinase),uridine/cytidine kinase; [9],20%
O=c1ccn([C@H]2C[C@H](O)[C@@H](CO)O2)c(=O)[nH]1 [Deoxyuridine],% Inhibitation (U/C kinase),uridine/cytidine kinase; [8],0** %
"O=c1[nH]c(=O)n([C@H]2C[C@H](O)[C@@H](CO)O2)cc1I [IdU, 5-Iododeoxyuridine, reference compound]",effect of tetrahydrouridine (H4U) on cytotoxicity / viability (in words),PC-3 cells [2],relative lack of the effect of tetrahydrouridine
same,effect of tetrahydrouridine (H4U) on radiosensitization (in words),PC-3 cells [1]; cells in culture,relative lack of the effect of tetrahydrouridine
O=c1ccn([C@@H]2O[C@H](CO)[C@@H](O)[C@H]2O)c(=O)[nH]1 [Uridine],inhibition at 250 µM,cytidine deaminase (CD); [4],2%
same,% Inhibitation (U/C kinase),uridine/cytidine kinase; [5],59%
same,% Inhibitation (U/C kinase),uridine/cytidine kinase; [6],62%
same,% Inhibitation (U/C kinase),uridine/cytidine kinase; [7],75%
same,% Inhibitation (U/C kinase),uridine/cytidine kinase; [8],80%
same,% Inhibitation (U/C kinase),uridine/cytidine kinase; [9],80%
same,% Inhibitation (U/C kinase),uridine/cytidine kinase; [10],87%
same,% Inhibitation (U/C kinase),"uridine/cytidine kinase; competitor 750 μM, substrate 3H-Cytidine 8.3 μM",86%
same,% Inhibitation (U/C kinase),uridine/cytidine kinase; [11],90%
same,inhibition at 250 µM,[3],0%
